Data: patent publication US20240010726A1, “LFA-1 SIGNALLING MEDIATOR FOR USE IN CANCER THERAPY” (Universität Basel, priority 2020, published 2024)

Columns and labels:
[1] = test system: REP T cells; experiment: FAK phosphorylation and CD107a degranulation of REP T cells co-incubated with T2 target cells; format: cell-based, human; settings: pulsed T2 target cells; presence vs absence of extracellular Mg^2+
Protocol: FIG. 3: Magnesium regulates LFA-1 mediated T cell activation and cytotoxicity as well BiTE- and CAR T-cell functionality. (a) Glycolytic switch of murine WT and LFA-1^−/− CTLs upon injection of anti-CD3/28 Ab in medium containing 1.2 mM Mg^2+ and 0 mM Mg^2+, presented as quantification of summarized data with n=4 mice. (b) Calcium flux in WT and LFA-1^−/− Jurkat T cells stimulated with anti-CD3 Ab in 1.2 mM and 0 mM Mg^2+ medium, respectively. Cells were loaded with Fluo4, and signal intensity as recorded by plate reader, was normalized to unstimulated baseline values. […] Quantified results of n=3 mice with 3 technical replicates each. (d) Caspase-3 activity in EL4 target cells after co-culture with murine WT and LFA-1^−/− CTLs under the conditions as in (c) for 4 hours, in presence of 10 μg/ml PHA. The effector to target cell ratio was 3:1. Results are quantified of n=3 mice with 3 technical replicates each. (e) Representative CD11a (LFA-1) surface expression on human naïve and EM CD8 T cells, PHA T cell blasts and REP T cells, assessed by flow cytometry. Flow cytometry-based assessment of inactivate LFA-1 with bent conformation (f), extended conformation with β2 leg extension (g), LFA-1 with open head-piece (h), phosphorylation of FAK, expression of degranulation marker CD107a (j) on REP T cells after co-incubation with T2 target cells (pulsed with 10^−8 M 9c peptide) in same condition as in (c). The effector to target cell ratio was 1:1. Data is presented as quantified results of n=5 healthy donors (f, g, h), n=3 healthy donors with 2 technical replicates each or n=1 healthy donor with 4 technical replicates (j). […] Data is presented as quantified results of n=1 healthy donor with 4 technical replicates. […] Cytotoxicity is reported as total area under the curve of the fluorescence driven by incorporation of cytotoxic green reagent in dead target cells (green area per μm^2). […] (p) Abundance of IFNγ in cell culture supernatants corresponding to the conditions depicted in (o) at 24 hours was determined by ELISA (n=8, 3 independent experiments). […]

[2] = test system: PC3-PIP tumor cells; experiment: Anti-PSMA CAR T cell in vivo experiment with Mg2+-restricted diet; set-up: species or system NSG mice; settings: Mg^2+-depleted diet vs control diet; anti-PSMA CAR T cells i.v.
Protocol: FIG. 3: Magnesium regulates LFA-1 mediated T cell activation and cytotoxicity as well BiTE- and CAR T-cell functionality. (a) Glycolytic switch of murine WT and LFA-1^−/− CTLs upon injection of anti-CD3/28 Ab in medium containing 1.2 mM Mg^2+ and 0 mM Mg^2+, presented as quantification of summarized data with n=4 mice. (b) Calcium flux in WT and LFA-1^−/− Jurkat T cells stimulated with anti-CD3 Ab in 1.2 mM and 0 mM Mg^2+ medium, respectively. Cells were loaded with Fluo4, and signal intensity as recorded by plate reader, was normalized to unstimulated baseline values. […] Quantified results of n=3 mice with 3 technical replicates each. […] The effector to target cell ratio was 3:1. Results are quantified of n=3 mice with 3 technical replicates each. (e) Representative CD11a (LFA-1) surface expression on human naïve and EM CD8 T cells, PHA T cell blasts and REP T cells, assessed by flow cytometry. […] Data is presented as quantified results of n=5 healthy donors (f, g, h), n=3 healthy donors with 2 technical replicates each or n=1 healthy donor with 4 technical replicates (j). […] Data is presented as quantified results of n=1 healthy donor with 4 technical replicates. […] (p) Abundance of IFNγ in cell culture supernatants corresponding to the conditions depicted in (o) at 24 hours was determined by ELISA (n=8, 3 independent experiments). […] Tumor volume was monitored twice per week. […]

[Mg+2] [Mg^2+, Magnesium]
Degranulation (CD107a) of REP T cells [1]: significantly increased
FAK phosphorylation in REP T cells [1]: significantly increased
CAR T cell-mediated tumor rejection (tumor growth) [2]: negatively impacted CAR T cell-mediated tumor-rejection
